Assay results published in patent US20250255882A1, “TREATMENT OF CARDIAC CONDITION RELATED COGNITIVE DYSFUNCTION” (The Trustees of Columbia University in the City of New York, priority 2024, published 2025).

Experiments:
[1] = test system: mouse model of HF (myocardial infarction, MI); assay: MWM test (long-term spatial learning and memory) with probe trial; type: in vivo; conditions: MI mice, treated; for target crossings / time spent in the target quadrant: 60-s probe trial day 5; for target crossings: MI 2.4±0.3, SHAM 4.6±0.3; for time spent in the target quadrant: MI 17±1 s, SHAM 25±2 s; for latency to find and reach the hidden platform: day 4 training trials, MI 30±1 s, SHAM 21±2 s
Protocol: One-way analysis of variance (ANOVA) was used to compare the difference between the six groups in FIGS. 2B, 2C, 2E and 2F. Tukey's test was used for multiple comparisons; two-way ANOVA was used in FIG. 2D. […] All statistical tests were two sided with the data derived from biologically independent samples.
A MWM test was performed to assess hippocampal-dependent long-term spatial learning and memory.
A probe trial was performed on day 5 of the MWM test.

[2] = molecular target: T1, hippocampal RyR2 (Mus musculus, UniProt E9Q401); assay: single-channel recordings of RyR2 incorporated in planar lipid bilayers; type: in vivo; conditions: hippocampal RyR2 from treated MI mice; for RyR2 mean closed time / RyR2 mean open time: versus untreated MI
T1 construct: Hippocampal RyR2 was immunoprecipitated and immunoblotted to detect PTMs; from tissue; host or cells: mouse hippocampus (SHAM / MI mice, treated in vivo)
Protocol: FIG. 3E are graphs of RyR2 Po, To and Tc in the same groups as FIG. 3D. FIG. 3F is a graph of Ca^2+ leak measured in microsomes from mouse hippocampi of the same groups as FIG. 3D. […] Individual values are shown with the mean±s.e.m. […] Data are derived from biologically independent samples. All statistical tests were two sided.
(§1) PTMs and functional abnormalities of neuronal RyR2 in HF hippocampal samples from MI mice were then evaluated and compared them to SHAM. Hippocampal RyR2 was immunoprecipitated and immunoblotted to detect PTMs.

[3] = molecular target: T1, hippocampal RyR2; assay: SDS-PAGE analysis of modified RyR2 and calstabin2 immunoprecipitated from hippocampal RyR2 complex; type: in vivo; conditions: hippocampi of treated MI mice
Protocol: FIGS. 3A-3G illustrate a mouse model of heart failure that is associated with leaky hippocampal RyR2. FIG. 3A is a cryogenic electron microscopy structure of RyR2 (gray, top and side view) showing the location of the Ser2808 in the RY3&4 phosphorylation domain (magenta) and calstabin2 (cyan). RyR2 PKA phosphorylation shifted the channel toward a primed state (yellow) 50.
as §1

[4] = test system: TGF-β pathway; assay: immunoblots of TGF-β, phosphorylated SMAD3 and NOX2 binding to RyR2 in hippocampi; type: in vivo, mouse; conditions: hippocampi of treated MI mice
Source text: FIG. 12A includes immunoblots showing expressing levels of TGF-β, phosphorylated SMAD3, total SMAD3, and NOX2 binding to RyR2 in the hippocampi of controls (n=4) and HF patients (n=9). FIG. 12B includes bar graphs depicting the ratio of TGF-β expression normalized to GAPDH, phosphorylated SMAD3 to total SMAD3 and NOX2 binding to RyR2 (IP RyR2). The same quantity of proteins was loaded on two separate gels and blotted separately for SMAD3 and pSMAD3. Individual values are shown with mean±SEM (t-test * p<0.05, Controls vs. HF patients). […] FIG. 12D includes bar graphs depicting the ratio of TGF-β expression normalized to GAPDH, phosphorylated SMAD3 to total SMAD3 and NOX2 binding to RyR2 (IP RyR2). The same quantity of proteins was loaded on two separate gels and blotted separately for SMAD3 and pSMAD3. Individual values are shown with mean±SEM. […] All statistical tests were two-sided. Data are derived from biologically independent samples.
TGF-β has been implicated in CNS disorders including Alzheimer's disease.

[5] = test system: MI mice; assay: hippocampal FDG metabolism by microPET; type: in vivo, mouse; conditions: treated MI mice; percentage of the FDG uptake in the SHAM mice (SHAM 100±3, MI 70±3)
Source text: FIG. 4A is a schematic representation of a hippocampal brain slice for LTP experiments and the positioning of the stimulating and recording electrodes.
Thereafter, [^18F]fluorodeoxyglucose (FDG) with positron emission tomography (PET) was used to measure energy consumption in neurons, which reflects neuronal communication signals and the integrative local neuronal activity. Deteriorating brain glucose metabolism measured by FDG-PET has been used as a clinical marker for Alzheimer's disease diagnosis. Thus, hippocampal FDG metabolism was evaluated in the experimental groups (FIGS. 4E and 4F).

[6] = test system: Ca2+-dependent enzymes, Tau and amyloid beta pathway; assay: Alzheimer's disease-like signaling in hippocampal samples; type: in vivo, mouse; conditions: hippocampi of treated MI mice
Source text: Abnormal Ca^2+ regulation can contribute to the activation of Ca^2+-dependent enzymes such as AMP-activated protein kinase (AMPK), cyclin-dependent kinase 5 (CDK5) and enhanced calpain activity. Activation of these enzymes in response to elevated cytosolic Ca^2+ levels are upstream signals of both pTau and amyloid deposits in Alzheimer's disease brains and could be a major factor in the CD observed in HF. […] We also observed an increase in p25 expression, the neurotoxic activator of CDK5, which plays an important role in amyloid precursor protein processing in AD.

[7] = test system: SNARE signaling pathway; assay: immunoblots of SNAP25, VAMP8, SYT2 and CPLX3 in hippocampi; type: in vivo, mouse; conditions: hippocampi of treated MI mice
Source text: FIGS. 7A-7E illustrate altered synaptic protein expression in heart failure. […] The color map represents fold change of proteins (log 2 scale). […] FIGS. 7B and 7C are immunoblots showing total expression of SNAP25, VAMP8, SYT2 and CPLX3, normalized to GAPDH in the hippocampi of controls (n=4) and individuals with HF (n=9). Individual values are shown with the mean±s.e.m. (t-test *P<0.05, control versus individuals with HF). […] Individual values are shown with the mean #s.e.m. […] Data are derived from biologically independent samples. All statistical tests were two sided.
Based on the proteome data in the setting of defective Ca^2+ regulation, four proteins were selected for further study. These four proteins were from the most enriched synaptic transmission pathways that are regulated by Ca^2+, located near the synaptic membranes, involved in learning and memory process, and involved in neurotransmission as potential downstream signals of leaky RyR2. These selections included synaptosomal-associated protein 25 (SNAP25), vesicle-associated membrane protein 8 (VAMP8), synaptogamin-2 (SYT2) and complexin3 (CPLX3). We analyzed their protein expression levels by immunoblot in individuals with HF, and in SHAM and MI mice with or without each of the aforementioned treatments. […]

T1 sequence (E9Q401 whole entry): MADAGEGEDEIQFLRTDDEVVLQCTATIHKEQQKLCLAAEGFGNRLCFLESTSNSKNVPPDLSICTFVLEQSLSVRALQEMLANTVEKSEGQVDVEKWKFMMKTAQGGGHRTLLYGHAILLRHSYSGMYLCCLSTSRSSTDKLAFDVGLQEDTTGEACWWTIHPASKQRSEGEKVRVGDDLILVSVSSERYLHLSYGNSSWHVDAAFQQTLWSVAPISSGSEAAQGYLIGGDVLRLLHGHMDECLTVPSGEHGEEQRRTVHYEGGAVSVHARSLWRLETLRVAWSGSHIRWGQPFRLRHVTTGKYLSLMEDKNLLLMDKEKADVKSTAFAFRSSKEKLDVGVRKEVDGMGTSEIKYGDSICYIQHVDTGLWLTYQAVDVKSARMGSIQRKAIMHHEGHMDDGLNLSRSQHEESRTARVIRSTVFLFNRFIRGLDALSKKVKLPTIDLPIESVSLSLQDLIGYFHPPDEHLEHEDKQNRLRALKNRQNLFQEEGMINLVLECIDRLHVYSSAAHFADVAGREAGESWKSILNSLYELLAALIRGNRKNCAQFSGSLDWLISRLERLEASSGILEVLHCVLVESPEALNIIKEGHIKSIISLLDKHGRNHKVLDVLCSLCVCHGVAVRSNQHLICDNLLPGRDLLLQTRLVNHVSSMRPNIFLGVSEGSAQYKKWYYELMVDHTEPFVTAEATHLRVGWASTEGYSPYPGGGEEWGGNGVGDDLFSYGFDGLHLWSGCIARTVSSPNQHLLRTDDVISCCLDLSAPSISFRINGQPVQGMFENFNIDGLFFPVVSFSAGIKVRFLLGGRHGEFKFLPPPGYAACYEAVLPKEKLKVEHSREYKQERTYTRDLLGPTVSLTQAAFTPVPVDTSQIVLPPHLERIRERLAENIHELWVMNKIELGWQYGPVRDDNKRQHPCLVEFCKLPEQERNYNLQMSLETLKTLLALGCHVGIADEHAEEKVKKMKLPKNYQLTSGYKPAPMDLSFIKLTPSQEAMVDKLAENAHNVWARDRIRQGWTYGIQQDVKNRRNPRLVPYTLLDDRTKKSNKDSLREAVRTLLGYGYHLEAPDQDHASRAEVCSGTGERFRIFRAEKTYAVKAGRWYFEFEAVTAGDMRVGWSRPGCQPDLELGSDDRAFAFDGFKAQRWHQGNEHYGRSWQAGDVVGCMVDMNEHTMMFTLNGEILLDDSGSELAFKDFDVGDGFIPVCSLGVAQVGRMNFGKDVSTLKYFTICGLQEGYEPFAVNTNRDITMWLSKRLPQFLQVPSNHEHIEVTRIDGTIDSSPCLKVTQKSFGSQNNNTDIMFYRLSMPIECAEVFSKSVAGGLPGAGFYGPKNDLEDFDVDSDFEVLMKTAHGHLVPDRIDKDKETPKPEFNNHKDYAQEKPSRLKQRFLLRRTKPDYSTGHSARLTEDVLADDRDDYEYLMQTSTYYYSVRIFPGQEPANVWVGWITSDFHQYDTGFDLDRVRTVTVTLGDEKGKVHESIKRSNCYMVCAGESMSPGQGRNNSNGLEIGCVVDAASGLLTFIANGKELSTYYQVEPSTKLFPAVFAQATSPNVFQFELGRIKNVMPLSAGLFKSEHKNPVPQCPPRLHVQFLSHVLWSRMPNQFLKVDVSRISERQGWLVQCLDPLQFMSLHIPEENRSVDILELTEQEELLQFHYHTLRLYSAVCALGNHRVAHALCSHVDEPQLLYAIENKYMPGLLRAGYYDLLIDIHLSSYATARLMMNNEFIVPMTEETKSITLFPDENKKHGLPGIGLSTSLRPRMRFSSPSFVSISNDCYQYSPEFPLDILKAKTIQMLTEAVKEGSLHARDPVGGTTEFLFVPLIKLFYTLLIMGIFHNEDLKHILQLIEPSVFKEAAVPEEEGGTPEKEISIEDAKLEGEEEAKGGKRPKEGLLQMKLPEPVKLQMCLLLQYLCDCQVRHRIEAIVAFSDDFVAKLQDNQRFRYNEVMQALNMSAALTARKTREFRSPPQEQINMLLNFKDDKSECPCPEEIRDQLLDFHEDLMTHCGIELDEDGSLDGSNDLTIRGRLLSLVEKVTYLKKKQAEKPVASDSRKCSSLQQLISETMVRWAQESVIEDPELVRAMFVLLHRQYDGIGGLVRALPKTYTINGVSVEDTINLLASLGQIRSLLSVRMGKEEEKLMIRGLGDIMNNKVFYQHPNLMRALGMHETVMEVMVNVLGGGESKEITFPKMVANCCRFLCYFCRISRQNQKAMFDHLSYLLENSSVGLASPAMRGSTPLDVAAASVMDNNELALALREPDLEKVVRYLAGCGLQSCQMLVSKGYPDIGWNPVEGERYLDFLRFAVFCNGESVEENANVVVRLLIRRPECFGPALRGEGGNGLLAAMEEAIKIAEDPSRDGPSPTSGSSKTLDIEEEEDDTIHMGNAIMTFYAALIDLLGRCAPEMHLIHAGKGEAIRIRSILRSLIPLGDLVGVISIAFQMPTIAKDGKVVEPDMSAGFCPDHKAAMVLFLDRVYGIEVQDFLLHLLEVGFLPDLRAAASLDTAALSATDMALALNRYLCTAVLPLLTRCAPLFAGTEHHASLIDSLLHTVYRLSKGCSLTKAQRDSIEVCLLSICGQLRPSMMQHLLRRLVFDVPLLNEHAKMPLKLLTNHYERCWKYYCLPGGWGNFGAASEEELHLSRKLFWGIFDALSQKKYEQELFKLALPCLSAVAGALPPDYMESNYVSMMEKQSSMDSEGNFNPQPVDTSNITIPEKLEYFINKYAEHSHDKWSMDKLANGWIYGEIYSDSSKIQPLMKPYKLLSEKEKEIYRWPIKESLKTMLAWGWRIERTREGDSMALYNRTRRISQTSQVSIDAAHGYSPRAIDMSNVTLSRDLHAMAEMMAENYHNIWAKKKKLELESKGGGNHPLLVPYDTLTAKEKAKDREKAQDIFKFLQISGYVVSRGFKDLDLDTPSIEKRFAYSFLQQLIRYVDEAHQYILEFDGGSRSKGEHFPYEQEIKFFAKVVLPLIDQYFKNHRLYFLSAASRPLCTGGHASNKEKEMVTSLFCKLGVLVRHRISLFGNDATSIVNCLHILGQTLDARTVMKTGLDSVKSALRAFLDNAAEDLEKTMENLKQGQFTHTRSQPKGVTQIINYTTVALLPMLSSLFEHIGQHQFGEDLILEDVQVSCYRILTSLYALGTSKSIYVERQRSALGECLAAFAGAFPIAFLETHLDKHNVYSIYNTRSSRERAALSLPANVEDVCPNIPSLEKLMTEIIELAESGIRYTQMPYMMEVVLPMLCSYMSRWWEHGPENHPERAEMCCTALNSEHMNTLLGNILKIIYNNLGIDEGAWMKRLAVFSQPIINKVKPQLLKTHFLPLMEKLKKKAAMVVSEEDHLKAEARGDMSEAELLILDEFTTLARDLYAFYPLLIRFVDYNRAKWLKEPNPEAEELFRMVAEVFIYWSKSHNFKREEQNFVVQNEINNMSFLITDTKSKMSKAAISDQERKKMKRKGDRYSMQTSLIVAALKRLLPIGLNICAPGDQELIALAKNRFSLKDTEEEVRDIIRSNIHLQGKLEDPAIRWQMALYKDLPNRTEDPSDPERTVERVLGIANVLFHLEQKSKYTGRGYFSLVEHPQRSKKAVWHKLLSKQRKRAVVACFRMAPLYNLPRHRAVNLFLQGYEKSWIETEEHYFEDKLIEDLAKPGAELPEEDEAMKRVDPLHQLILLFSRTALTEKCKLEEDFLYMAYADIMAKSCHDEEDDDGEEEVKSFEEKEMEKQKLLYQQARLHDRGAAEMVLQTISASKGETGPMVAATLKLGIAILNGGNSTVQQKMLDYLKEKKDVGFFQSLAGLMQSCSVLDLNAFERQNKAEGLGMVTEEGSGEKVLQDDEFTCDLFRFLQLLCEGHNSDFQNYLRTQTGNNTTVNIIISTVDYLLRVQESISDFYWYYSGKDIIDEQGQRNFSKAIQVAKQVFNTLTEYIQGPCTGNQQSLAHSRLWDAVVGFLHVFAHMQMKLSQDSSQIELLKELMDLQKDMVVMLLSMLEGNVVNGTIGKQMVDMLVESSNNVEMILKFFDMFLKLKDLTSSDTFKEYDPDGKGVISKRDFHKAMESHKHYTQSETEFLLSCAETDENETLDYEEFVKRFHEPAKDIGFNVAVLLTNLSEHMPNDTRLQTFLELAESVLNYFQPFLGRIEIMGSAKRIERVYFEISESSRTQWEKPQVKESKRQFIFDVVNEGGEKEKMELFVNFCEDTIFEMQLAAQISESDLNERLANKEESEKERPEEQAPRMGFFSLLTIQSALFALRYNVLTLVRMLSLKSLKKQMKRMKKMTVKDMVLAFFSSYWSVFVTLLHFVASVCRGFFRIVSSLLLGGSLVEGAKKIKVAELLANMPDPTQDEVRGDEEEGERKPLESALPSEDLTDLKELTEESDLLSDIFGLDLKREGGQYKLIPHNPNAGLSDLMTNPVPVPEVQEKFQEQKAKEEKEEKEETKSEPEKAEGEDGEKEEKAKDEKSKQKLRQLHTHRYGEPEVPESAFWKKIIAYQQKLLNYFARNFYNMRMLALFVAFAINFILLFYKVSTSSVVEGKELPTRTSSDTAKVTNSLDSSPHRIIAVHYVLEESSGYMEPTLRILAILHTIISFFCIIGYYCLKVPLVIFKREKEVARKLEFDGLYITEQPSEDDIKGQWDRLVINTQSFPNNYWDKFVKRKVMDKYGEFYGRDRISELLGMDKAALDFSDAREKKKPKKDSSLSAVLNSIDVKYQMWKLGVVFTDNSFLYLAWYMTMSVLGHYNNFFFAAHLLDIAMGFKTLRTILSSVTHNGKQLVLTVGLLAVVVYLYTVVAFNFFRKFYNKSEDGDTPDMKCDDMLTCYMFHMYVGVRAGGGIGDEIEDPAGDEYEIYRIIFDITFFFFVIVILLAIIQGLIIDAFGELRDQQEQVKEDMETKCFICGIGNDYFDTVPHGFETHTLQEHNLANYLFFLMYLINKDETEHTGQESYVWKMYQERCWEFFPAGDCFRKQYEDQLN
T1 sequence (Q9Z2I2 whole entry partner): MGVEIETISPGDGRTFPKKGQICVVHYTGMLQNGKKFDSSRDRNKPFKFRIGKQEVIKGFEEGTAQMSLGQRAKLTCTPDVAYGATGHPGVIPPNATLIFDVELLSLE

Structure (SMILES)	target crossings [1]	time spent in the target quadrant [1]	latency to find and reach the hidden platform [1]	RyR2 mean closed time [2]	RyR2 mean open time [2]	RyR2 nitrosylation [3]	RyR2 oxidation [3]	RyR2 phosphorylation [3]	calstabin2 binding to RyR2 [3]	NOX2 binding to hippocampal RyR2 [4]	TGF-β levels [4]	phosphorylation of SMAD3 [4]	hippocampal FDG metabolism [5]	changes in AMPK, GSK3B, CaMKII, Tau phosphorylation, p25, BACE1 and βCTF [6]	expression of SNAP25, VAMP8, SYT2 and CPLX3 [7]	RyR2 open probability (Po) ([2]; 150 nM Ca2+ cis, MI 0.17%±0.04%)
Fc1ccc(Cl)cc1-c1nc(Nc2ccncc2)c2nccnc2n1 [SD-208]	4.5±0.6	27 ± 2 s	15 ± 3 s	increased	decreased	significantly decreased	significantly decreased	significantly decreased	enabled rebinding of calstabin2	significantly reduced	significantly reduced	significantly reduced	138±22	prevented/attenuated	restored the expression of these proteins to the control levels	
CC(C)NCC(O)COc1cccc2ccccc12 (stereo not drawn) [propranolol]	3.5±0.6	26 ± 2 s	17 ± 3 s	increased	decreased	significantly reduced		significantly reduced	restored calstabin2 binding	significantly reduced	significantly reduced	significantly reduced	145±26	prevented/attenuated	restored the expression of these proteins to the control levels	0.018%±0.020%
